# Patent publication US10328056B2, “Priming of pancreatic tumor cells and cancer stem cells to TRAIL-induced apoptosis” (Alliance of Cardiovascular Researchers, priority 2014, dated 2019)
# Assays:
# MiaPaCa2 tumors = experiment: Orthotopic MiaPaCa2 tumor model; type: in vivo, mice; conditions: for #tumors at 6 wks: JNKi 1 mg/kg oral 5x/week, TRAIL 1 mg/kg i.p. 2x/week, gemcitabine 80 mg/kg 2x/week; for % tumor presence at 6 wks / Kidney mets / Liver mets / Peritoneal mets / Spleen mets: same regimens; for Kidney mets / Liver mets / Peritoneal mets / Spleen mets: at 6 wks
# Procedure: Age-matched male swiss nu/nu mice (6-8 weeks old) were injected orthotopically with pancreatic tumor cells. All procedures were performed in accordance with the guidelines of the Institutional Animal Care and Use Committee at The University of Texas MD Anderson Cancer Center (ACDF Protocol #12-12-12631). Animals were anesthetized with isoflurane anesthesia (1%-3% via inhalation), and an incision was made in the left abdominal flank. The spleen was located and extracted, and 1×10^6 pancreatic cells in 50 μL of PBS were injected into the underlying tail of the pancreas. The abdominal wall was closed with sterile absorbable sutures, and wound clips were applied to the skin. Animals were monitored daily and after two weeks of untreated tumor growth randomly assigned to different treatment groups: control (no treatment), JNKi (1 mg/kg) was administered by oral gavage five times per week; gemcitabine (80 mg/kg) or TRAIL (1 mg/kg) was injected intraperitoneally with a 27-G needle two times per week or JNKi and TRAIL together at the dosages indicated above. Weight, tumor growth, and health status were clinically followed for 4 weeks. At day 42, animals were euthanized, and blood and tissues were collected for postmortem analysis.
# L3.6pl cells = experiment: MTT cell viability assay; type: cell-based; conditions: compared to TRAIL alone
# Procedure: (§1) Cells were seeded in a 96-well plate at a density of 4000 to 5000 cells per well (70%-80% confluence) in triplicate. Non-adherent cells were washed with PBS, and different substrate dilutions were added. After 24 hours, 3-(4,5-dimethylthiazol-2-yl)-2,5-diphenyltetrazolium bromide (MTT) assay (Roche, Mannheim, Germany) was performed according to the manufacturer's instructions. Results were measured at 570 nm and background at 650 nm on a microplate reader (Molecular Devices).
# IL-8, CXCR1, DcR1, c-Jun = experiment: qRT-PCR of IL-8 axis genes; type: cell-based; conditions: IL-8 treatment
# Procedure: (§2) For total RNA extraction, cells were homogenized with TRIzol (Invitrogen). Phase separation was performed by the addition of chloroform and subsequent centrifugation steps. Aqueous phase of samples was collected, and RNA was precipitated by isopropyl alcohol. After washing, RNA was redissolved in DEPC-treated water, and RNA quality and quantity were measured with a Nanodrop ND-1000 Spectrophotometer (Thermo Scientific). For cDNA synthesis, the iScript Reverse Transcription Supermix (Bio-Rad) was used according to the manufacturer's protocol, and the reaction mix was incubated in a thermal cycler (Bio-Rad MyIQ Single-Color RT-PCR Detection System iCycler) with the following protocol: priming (5 minutes at 25° C.), reverse transcription (30 minutes at 42° C.), and reverse transcription inactivation (5 minutes at 85° C.). qRT-PCR was performed using iQ SYBR Green Supermix (Bio-Rad) according to the following protocol: initial denaturation and enzyme activation (1 cycle at 95° C. for 3 minutes), denaturing (40 cycles at 95° C. for 15 seconds) with annealing and extension (40 cycles at 55° C. for 30 seconds), and melting curve (1 cycle at 55° C.-95° C. in […] for 30 seconds). The Ct (cycle threshold) value was measured in absolute quantification (of cycles of amplification) and compared to β-actin, which served as a housekeeping gene.
# [1] = system: TRAIL-resistant L3.6pl cells (L3.6plTR); experiment: Cell viability / cell death in TRAIL-resistant cells; type: cell-based
# Procedure: as §1
# [2] = system: CSC-enriched pancreatic cancer spheres; experiment: MTT viability assay, spheres versus parental cells; type: cell-based; conditions: 25 ng/mL and 50 ng/mL
# Procedure: as §1
# [3] = system: adipose tissue-derived stem cells (ASCs); experiment: Differentiation assay of ASCs; type: cell-based, human
# Procedure: Adipose tissue-derived stem cells were seeded in the following concentrations: adipogenic differentiation, 1×10^4 cells/cm^2; chondrogenic differentiation, 1.6×10^7 cells/cm2; and osteogenic differentiation, 5×10^3 cells/cm^2. After a 2-hour incubation with 20% FBS-containing medium, cells were washed, and the respective differentiation media were added (Invitrogen StemPro differentiation kits). Differentiation media were changed twice a week. After 14 to 21 days, cells were fixed with 4% formaldehyde for 30 minutes and stained with Oil Red O for lipid vesicles (adipogenic differentiation), Alcian Blue for proteoglycans (chondrogenic differentiation), and Alizarin Red S for calcium deposits (osteogenic differentiation) as reported previously. Bai X, Alt E. “Myocardial regeneration potential of adipose tissue-derived stem cells” Biochemical and Biophysical Research Communications. 401 (2010) 321-6.
# [4] = system: parental pancreatic cancer cells; experiment: MTT cell viability assay, single agents; type: cell-based; conditions: JNKi 0.5 μM alone; rhTRAIL 10 ng/mL alone
# Procedure: as §1
# L3.6pl spheres = experiment: Acridine orange/ethidium bromide staining; type: cell-based; conditions: 50 ng/mL, 24 hours
# Source text: (§3) According to a protocol adapted from Todaro et al. (supra), attached cells or spheres were washed with PBS, stained with acridine orange/ethidium bromide, and visualized immediately with fluorescent microscopy.
# L3.6pl parental cells = experiment: Acridine orange/ethidium bromide staining; type: cell-based; conditions: 50 ng/mL, 24 hours
# Source text: as §3
# DR4 and DR5 = experiment: qRT-PCR of TRAIL death receptors; type: cell-based; conditions: vs control samples
# Procedure: as §2
# p-JNK = experiment: PathScan p-SAPK/JNK sandwich ELISA; type: cell-based; conditions: L3.6plTR cells vs untreated control
# Procedure: Protein lysates were obtained from adherent cells or spheres after 1-hour of incubation with JNKi and/or TRAIL. Protein quantification was performed, and PathScan Sandwich ELISA Antibody Pair (Cell Signaling Technologies) was performed according to the manufacturer's instructions.
# IL-8 secretion = experiment: Human CXCL8/IL-8 ELISA of culture supernatant; type: cell-based
# Procedure: Cell culture supernatant was obtained after 24-hour treatments in triplicate. A human CXCL8/IL-8 Quantikine ELISA kit (R&D Systems) was used to measure human IL-8 according to the manufacturer's protocol. An IL-8 standard curve was performed to determine concentrations (in pg of cytokine per μL).
# DcR1 = experiment: qRT-PCR of TRAIL decoy receptor; type: cell-based; conditions: vs control samples
# Procedure: as §2
# MTT cell viability assay = type: cell-based; conditions: human, low-dose 0.5 μM or 1.0 μM
# Procedure: as §1
# [5] = system: CSC-enriched pancreatic cancer spheres; experiment: Sphere forming assay; type: cell-based; conditions: high-dose treatment group (control 40%)
# Procedure: Sphere-forming medium consisted of MEMα supplemented with L-glutamine, putrescine, insulin (all from Sigma-Aldrich), […] (20 ng/mL), basic fibroblast growth factor (10 ng/mL), and B-27 supplement (Gibco). For first generation, attached cells were trypsinized, washed twice with PBS, and seeded in sphere-forming medium as single cell suspensions with clonal density (5,000-10,000 cells/mL) on ultra-low-attachment plates (Corning). After 7 to 10 days, spheres were harvested by gravitation in a tube, trypsinized, washed twice with PBS, and reseeded as described above for the next higher generation. To quantify sphere-forming ability, cells were prepared as described in the preceding paragraph and seeded in 96-well ultra-low-attachment plates at 500 to 1000 cells per well. Medium was supplemented with 1% methylcellulose to prevent cell-cell attachments. Medium was added or renewed every 3 days, and spheres were quantified at day 10 to 12.
# [6] = system: adipose tissue-derived stem cells (ASCs); experiment: MTT proliferation assay of adipose tissue-derived stem cells; type: cell-based, human; conditions: 10.0 μM or 20.0 μM
# Procedure: as §1
# For measurement of cell proliferation, cells were seeded into 24-well plates. After 24 hours, cells were washed with PBS, and medium with different dilutions of JNKi was added. Viable cells were then counted daily with a standard trypan blue stain protocol.
Compound,#tumors at 6 wks (MiaPaCa2 tumors),% tumor presence at 6 wks (MiaPaCa2 tumors),Kidney mets (MiaPaCa2 tumors),Liver mets (MiaPaCa2 tumors),Peritoneal mets (MiaPaCa2 tumors),Spleen mets (MiaPaCa2 tumors),"differentiation into osteoblasts, chondrocytes, adipocytes [3]",also measured
"Nc1ccn([C@@H]2O[C@H](CO)[C@@H](O)C2(F)F)c(=O)n1 [GEM, Gemcitabine]",5/5,100%,0,1,1,3,,
IL-8: interleukin-8 added to cells in combination with TRAIL,,,,,,,,"cell viability / apoptosis in combination with TRAIL (L3.6pl cells): neutralized the apoptosis-inducing power of TRAIL; DcR1 expression (IL-8, CXCR1, DcR1, c-Jun): upregulation of the decoy receptor DcR1; IL-8 and CXCR1 expression (IL-8, CXCR1, DcR1, c-Jun): autostimulated IL-8 and CXCR1 expression; cell viability / apoptosis in combination with TRAIL ([1]; compared to TRAIL alone): neutralized the apoptosis-inducing power of TRAIL"
TRAIL: recombinant human TNF-related apoptosis-inducing ligand from R&D Systems,10/10,100%,0,2,1,0,functionally unimpaired,"resistance of spheres to TRAIL-induced cell death vs parental cells [2]: significantly more resistant; cell viability [4]: only modest effects; viability of spheres (L3.6pl spheres): almost entirely viable; apoptosis (L3.6pl parental cells): robust apoptosis; expression of DR4 and DR5 (DR4 and DR5): reduced the presence of the apoptosis receptors DR4 and DR5; p-JNK levels (p-JNK): increased p-JNK levels; TRAIL level at peak IL-8 secretion (IL-8 secretion; Panc1 cells, 24 hours): 50 ng/mL; IL-8 secretion (IL-8 secretion; TRAIL with or without JNKi): upregulates IL-8 secretion; IL-8 production (IL-8 secretion; increasing doses of TRAIL, 24 hours): increased dose-dependently; cell death ([1]; TRAIL doses up to 100 ng/mL): detectable cell death only in small numbers of cells; expression of DcR1 (DcR1): increased the expression of the decoy receptor DcR1"
"Oc1c2ccccc2c2c3c(cccc13)N=N2 [JNKi, SP600125]",4/4,100%,0,1,0,1,functionally unimpaired,"viability at 24 h (MTT cell viability assay; L3.6pl cells, 24 hours): 80%; viability at 24 h (MTT cell viability assay; MiaPaCa2 cells): 80%; spheres bigger than 150 μm in diameter [5]: 0%; cell proliferative capacity, lower compared to untreated ASCs [6]: 20%"
